Source: patent US8940911B2, “Squarylated lactones inhibitors for bacterial biofilm formation” (Syracuse University, priority 2012, dated 2015)

Tests used:
E. coli RP437 = assay: Static biofilm inhibition assay (crystal violet, 96-well plate); format: cell-based, Escherichia coli; details: E. coli RP437, 200 μM, 24 h, crystal violet
Text: A primary objective was to test the ability of SHLs to inhibit biofilm formation against E. coli RP437. […] Viable controls were required that would allow us to measure and compare the activity of SHLs against known biofilm inhibitors and naturally occurring AI-1 signal molecules. […] The activity of this class of molecule is presumably similar or even marginally higher than that of brominated furanone (BF8 48) (56%).
For the present invention, the E. coli RP437 biofilms were allowed to develop in a 96-well plate in the absence or presence of SHLs. After 24 hours, the planktonic bacteria and remaining media were removed and the crystal violet was introduced in the wells. The bacterial biofilm being formed at the air/liquid interface on the inside wall of the well is stained readily by crystal violet. After removing the excess crystal violet and repeatedly washing the wells with water, followed by ethanol solubilization of the dye, allows quantification of the amount of biofilm by spectrophotometry (OD600). […] We believe that the observed biofilm inhibition activity cannot be directly attributed to any predominant structural feature inherent in the SHLs. Rather, the small deviations in the structures of the SHLs and their effect on biofilm formation could be a result of the nature of non-covalent forces that arise during SHLs presumed binding within the receptor active site.
An overnight culture of E. coli RP437 grown in LB media (OD600 of 1.0) containing streptomycin (10 μg/mL) was subsequently sub-cultured to an OD600 of 0.04 (1:100 dilution with LB media). To each well in the solvent resistant polypropylene or polystyrene-based 96-well microtiter plates were added 200 μL of the sub-cultured bacteria respectively. To each of the wells containing the bacterial cultures varying concentrations of the synthetic molecules was added and the contents in each well were gently mixed. Control wells comprised of untreated bacterial culture (four replicates) and the LB media (four replicates). The microtiter plates were then covered and wrapped in a Saran wrap and allowed to incubate at 37° C. for 24 hours without shaking. After that time, the microbial medium in each well was discarded and the remaining biofilm that was formed during incubation was stained with 225 μL of a 0.1% crystal violet solution and allowed to incubate at room temperature for 30 minutes. After the incubation period, the crystal violet was discarded and the wells were gently washed twice with water (230-250 μL) and allowed to air dry for 15-20 minutes. For the purpose of solubilizing the remaining crystal violet that had stained the biofilm present in the interior of the 96-well plates, a 250 μL solution of 95% ethanol was used. After the addition of 95% ethanol, the contents of each well were mixed thoroughly and allowed to sit for 15-20 minutes. Finally, the biofilm formed was quantified by transferring 100 μL of the ethanol solution into a fresh polystyrene microtiter dish that was subsequently read by an absorbance plate reader (A600). After elimination of background absorbance, the percentage inhibition was calculated by dividing the amount of absorbed crystal violet in wells that contained the synthetic compound by the amount of absorbed crystal violet in wells that contained bacteria only (control). Biofilm assays for each synthetic compound were repeated two to three times and each concentration considered for inhibition studies were tested over four replicates.

[1] = system: P. aeruginosa PAO1-GFP/pSMC2; assay: Confocal microscopy analysis of P. aeruginosa biofilms (COMSTAT); format: cell-based, Pseudomonas aeruginosa; details: 400 μM, 24 h at 37° C., CLSM/COMSTAT
Experimental: FIG. 13 is a series of representative confocal laser scanning microscopy images of biofilm formation by P. aeruginosa PAO1-GFP/pSMC2 in the absence of inhibitor (A); and in the presence of 400 μM BF4 49 (B); 400 μM hexyl-SHL 9 (C); 400 μM tolyl-SHL 11 (D); and 400 μM thienyl-SHL 12 (E).
FIG. 14 is a graph of quantification of biofilm formation by P. aeruginosa PAO1-GFP/pSMC2 in the absence and presence of 400 μM SHLs 9, 11 and 12. Biomass, mean thickness, and surface area are quantified from fluorescence image using COMSTAT software. Z-Stack images from at least four different locations were used. Values are normalized by that of the brominated furanone-free control.
We developed the biofilms consisting of […] P. aeruginosa on stainless steel coupons (316 L, ⅜ in×⅜ in.) for 24 h at 37° C. in the absence or presence of 400 μM hexyl-SHL 9, tolyl-SHL 11, thienyl-SHL 12, and BF4 49. All the samples were analyzed with CLSM (see FIG. 13) and the biomass, surface area, and mean thickness of biofilms were calculated using the COMSTAT software. Tolyl-SHL 11 reduced the biomass by ˜90%, similar to that of the toxic BF4 49.

SK-N-SH cells = assay: Human neuroblastoma cancer cell cytotoxicity assay (CCK-8); format: cell-based; details: 200 or 300 μM, 1 h exposure, read after 24 h
Experimental: After examining the efficacy of SHLs at inhibiting biofilm, dispersing established biofilms, and reducing the maximum thickness of biofilms without being toxic to the planktonic bacterial cells, we tested the cytotoxicity of the key potent SHLs on the human neuroblastoma cancer cell line SK-N-SH. These studies were conducted such that the SK-N-SH cells were subjected to the maximum concentrations of the key potent SHLs tested on bacteria.
A previously grown T-flask of SK-N-SH cells was observed under a microscope to confirm the confluence of the cells. Next, the old media was discarded and the adherent cells were washed with ˜10 mL of MEM(−). The wash was discarded and 2 mL of Trypsin-EDTA solution was added to the T-flask and incubated for 10 minutes at 37° C. and at 5% atmosphere of CO2. Afterwards, the flask was viewed under a microscope to determine if the cells were suspended in the solution. Subsequently, ˜8 mL of MEM(+) was added to the flask and carefully mixed via pipette to break-up any large clusters of cells. 100 μL of the culture was added to an Eppendorf tube and combined with 100 μL of […]. A hemocytometer and glass cover slide was carefully cleaned with a kimwipe and ethanol. Placing the glass cover slide on top of the hemocytometer, 10 μL of the mixture in the Eppendorf tube was pipetted into the two grooves on the hemocytometer, avoiding the generation of bubbles. The hemocytometer was viewed one chamber at time under a microscope and the live cells were counted using the hemocytometer cell counting method. The remaining cell culture in the T-flask was diluted with MEM(+) to 25 mL such that there would be ˜5000 cells/mL. 100 μL of the culture was placed into wells on a 96 well plate such that one column had only MEM(+) and the wells on the outer perimeter of the plate were left empty. Four plates were made in this manner so that there would be plates for times 0, 24, 48, and 72 h. The plate was then incubated for 24 h at 37° C. and at 5% atmosphere of CO2. Subsequently, the old media was discarded and the wells were subjected to either 200 μM or 300 μM solutions of compounds 3, 4, 8, and 46 in MEM(+) (100 μL) such that one column still contained only MEM(+) and one column contained MEM(+) and untreated cells. The plate was incubated for 1 h and then the solutions were discarded and fresh MEM(+) media was added (100 μL). Each plate was then incubated for the desired time (0, 24, 48, or 72 h). After incubation, 10 μL of CCK-8 solution was added to each well and then the plate was incubated for 2 h followed by reading the OD450 with a microplate reader.

[2] = system: DsRed-express-labeled E. coli RP437; assay: Confocal imaging of E. coli biofilms on stainless steel coupons (COMSTAT); format: cell-based, Escherichia coli; details: 200 μM, 24 h at 37° C., CLSM/COMSTAT
Experimental: The effects of SHLs upon the bacterial biofilm were examined; more specifically, the effect of SHLs upon the biofilm architecture. […] These studies were conducted by static biofilm assays employing crystal violet staining that indicates the total biomass that resides within a biofilm but provides no indication regarding the topology of the biofilms. To elucidate the topological features assumed by the E. coli RP437 biofilm in the presence of SHLs and BF8 48, studies of biofilms consisting of DsRed-express-labeled E. coli RP437 that is fluorescent and can be easily visualized by confocal laser scanning microscopy (CLSM) were performed. […] Further, the stacked images in vinyl-SHL 3 indicating the maximum thickness of the biofilm is considerably smaller than the biofilms in BF8 48 and the untreated E. coli samples. We developed the biofilms consisting of DsRed-express-labeled E. coli on stainless steel coupons (316 L, 1 in×1 in.) for 24 h at 37° C. that were treated with BF8 48 or SHLs or were left untreated. All the samples were analyzed with CLSM (see FIG. 8) and the maximum thickness of biofilms calculated using the COMSTAT software. […] Moreover, butyl-SHL 8 and butoxy-SCPA 46 reduce the biofilm thickness by 38% and 27%, respectively.
An overnight culture of E. coli RP437 pRSH103 grown in LB media (OD600 of 1.0) containing tetracycline (3 μg/mL) was subsequently sub-cultured to an OD600 of 0.04 (1:100 dilution with LB media). To each well in the solvent resistant polypropylene or polystyrene-based 24-well microtiter plates was added 200 μM synthetic molecules in DMSO solution respectively. In addition, to each of the wells containing the known concentrations of synthetic molecules was added 2 mL of the sub-cultured bacteria and the contents in each well were gently mixed. […] The fluorescent emission was detected with a LP 560 nm emission filter. The coupons were gently placed upside down on a microscope cover glass (24×60 mm, No. 2, VWR International LLC, West Chester, Pa., USA) and analyzed with CLSM. […]

Structure (SMILES)	biofilm inhibition (in words) (E. coli RP437)	inhibition of biofilm formation (E. coli RP437) [%]	also measured
C=CCc1c(NC2CCOC2=O)c(=O)c1=O (stereo not drawn) [allyl-SHL2]	Poor biofilm inhibition		
CCCCOc1c(OCCCC)c(=O)c1=O [BSQ 44, 3,4-dibutoxy-cyclobut-3-ene-1,2-dione, reference compound]	Poor biofilm inhibition		
CCCCCCc1c(NC2CCOC2=O)c(=O)c1=O (stereo not drawn) [hexyl-SHL 9]		42	P. aeruginosa biofilm inhibition (in words) [1]: mild
CCCCOc1c(NC2CCOC2=O)c(=O)c1=O (stereo not drawn) [butoxy-SHL 1]	weaker biofilm inhibition		
O=C1OCCC1Nc1c(-c2ccccc2)c(=O)c1=O (stereo not drawn) [phenyl-SHL 10]		44	
C=Cc1c(NC2CCOC2=O)c(=O)c1=O [vinyl-L-SHL 4]	weaker biofilm inhibition		cytotoxicity on human neuroblastoma cancer cells (in words) (SK-N-SH cells): toxic
CC(C)Oc1c(OC(C)C)c(=O)c1=O [IPSQ 42, reference compound]	Poor biofilm inhibition		
CCCCc1c(NC2CCOC2=O)c(=O)c1=O (stereo not drawn) [butyl-SHL 8]		48	cytotoxicity on human neuroblastoma cancer cells (in words) (SK-N-SH cells): does not appear to be toxic; reduction of the maximum thickness of biofilm [2]: 38%
